Measurements taken from US5942521A, “Quinolinone derivative and anti-allergic agent with said quinolinone derivative as the active ingredient” (Dainippon Ink and Chemicals, Inc., priority 1996, dated 1999).

Columns and labels:
[1] = test system: passive cutaneous anaphylaxis (PCA) reaction; assay: Effect on homologous passive cutaneous anaphylaxis (PCA) reaction in rats; format: in vivo; details: Rattus norvegicus, po, 0.5 h, male wistar rats; for inhibition in vivo at 100 mg/kg: test compounds, 100 mg/kg p.o., 1 hour before induction of anaphylaxis
Method: Effect on homologous passive cutaneous anaphylaxis (PCA) reaction in rats
This experimental animal model is caused by immediate type allergic reaction, namely, antigen-antibody reaction. In the following, the method of this pharmacological test will be explained.
Method: Male wistar rats (9 weeks old) were intradermally administered 0.05 ml of anti-serum against dinitrophenylated ascaris (DNP-As) into two sites on the shaved dorsal skin. 48 hours later, aminoquinolinone derivatives (test compounds) suspended in 0.5% methylcellulose (MC) were given orally at a dose of 100 mg/kg to the animals. 1 hour after administration of Test compounds, the animals were induced anaphylaxis by injection of saline (1 ml) dissolving 1 mg of trinitrophenylated ascaris (TNP-As) and 5 mg of Evans Blue into the tail vein of the animals. 30 minutes after induction of anaphylaxis, animals were anesthetized by ether and killed by bleeding, and were flayed dorsal skin. The leakage of dye was assessed by measuring the diameter (mean of shortest and longest diameter) of the blue spot on the inside surface of dorsal skin. As vehicle control group, only 0.5% MC solution was administered orally, and as positive control group, Tranilast suspended in 0.5% MC were administered orally at a dose of 200 mg/kg to the animals with the same method as the test compounds groups, The inhibition (%) of PCA reaction was calculated according to equation 1 and the result was shown in Table 1. Each experimental group consisted of 5 rats.
In the conditions of this experiment, it was considered that the compound, which inhibited PCA reaction by over forty (40) percent against that in vehicle control group, was evidently effective for immediate type allergy.
Inhibition (%)=(A-B)/A×100 (Equation 1)
A: leakage of dye in vehicle control group
B: leakage of dye in test compound group or positive control group

[2] = test system: contact dermatitis induced by picryl chloride; assay: Effect on contact dermatitis induced by picryl chloride in mice; format: in vivo; details: for inhibition in vivo at 20 mg/kg: test compounds, 20 mg/kg p.o. 12 hours after challenge
Method: Effect on contact dermatitis induced by picryl chloride in mice
The delayed type hypersensitization is inhibited by steroid, but can not be effected by known anti-allergic agents. In the following, the method of the pharmacological test will be explained.
Method: Mice, shaved their abdominal skin on previous day, were immunized by applying 0.1 ml of acetone containing 7 mg of picryl chloride to the skin of the abdomen. 7 days after immunization, the thickness of the ear was measured with a dial thickness gauge, then mice were challenged by painting […] of 1% picryl chloride olive oil solution to each side skin of left ear. 24 hours after challenge, the thickness of the left ear was measured again. The compounds of the present invention (test compounds) suspended in 0.5% MC were forcibly administered orally at a dose of 20 mg/kg 12 hours after challenge. As vehicle control group, only 0.5% MC solution was administered orally, and as positive control group, Prednisolone, steroid hormone, was administered orally at a dose of 10 mg/kg and as negative control group, Tranilast was administered orally at a dose of 200 mg/kg.
Increase (%)=(A-B)/B×100 (Equation 2)
A: thickness of the ear at 24 hours after challenge
B: thickness of the ear before challenge
Inhibition (%)=(C-D)/C×100 (Equation 3)
C: The increase (%) in vehicle control group
D: The increase (%) in test compounds group, positive control group

[3] = Mus musculus, po, ear thickness at 24 hours, read-out: Inhibition (%) of increase of ear thickness

Structure (SMILES) | inhibition in vivo at 200 mg/kg ([1]; positive control Tranilast, 200 mg/kg p.o.) [%] | inhibition in vivo at 200 mg/kg ([2]; Mus musculus, po, negative control Tranilast, 200 mg/kg p.o., ear thickness at 24 hours, read-out: Inhibition (%) of increase of ear thickness) [%] | inhibition of delayed type hypersensitization (in words) ([2]; Tranilast, 200 mg/kg p.o.) | inhibition in vivo at 100 mg/kg [1] [%] | inhibition in vivo at 20 mg/kg [2, 3] [%]
COc1ccc(/C=C/C(=O)Nc2ccccc2C(=O)O)cc1OC [Tranilast, reference compound] | 54 | 6 | did not inhibit delayed type hypersensitization |  | 
COc1c(OC(C)=O)c(=O)n(C)c2cc(N)ccc12 [compound 6, 7-amino-3-acetoxy-4-methoxy-1-methyl-2(1H)-quinolinone] |  |  |  | 46 | 43
Cn1c(=O)c(O)c(O)c2ccc(N)cc21 [compound 8, 7-amino-3,4-dihydroxy-1-methyl-2(1H)-quinolinone] |  |  |  | 48 | 41
CNc1ccc2c(OC)c(OC(C)=O)c(=O)n(C)c2c1 [compound 9] |  |  |  | 45 | 43
CNc1ccc2c(OC)c(O)c(=O)n(C)c2c1 [compound 10, 7-methylamino-3-hydroxy-4-methoxy-1-methyl-2(1H)-quinolinone] |  |  |  | 42 | 40
COc1c(O)c(=O)[nH]c2cc(N)ccc12 [compound 14, 7-amino-3-hydroxy-4-methoxy-2(1H)-quinolinone] |  |  |  | 44 | 38
COc1c(OC(C)=O)c(=O)[nH]c2cc(N)ccc12 [compound 15, 7-amino-3-acetoxy-4-methoxy-2(1H)-quinolinone] |  |  |  | 41 | 40
CCCCNc1ccc2c(OC)c(OC(C)=O)c(=O)[nH]c2c1 [compound 16, 7-butylamino-3-acetoxy-4-methoxy-2(1H)-quinolinone] |  |  |  | 42 | 36
CCCCNc1ccc2c(OC)c(O)c(=O)[nH]c2c1 [compound 17, 7-butylamino-3-hydroxy-4-methoxy-2(1H)-quinolinone] |  |  |  | 45 | 43
COc1c(O)c2ccc(N)cc2n(C)c1=O [compound 19, 7-amino-3-methoxy-4-hydroxy-1-methyl-2(1H)-quinolinone] |  |  |  | 44 | 45
CCOc1c(OC(C)=O)c(=O)n(C)c2cc(N)ccc12 [compound 20, 7-amino-3-acetoxy-4-ethoxy-1-methyl-2(1H)-quinolinone] |  |  |  | 41 | 43
CCCCCCCCOc1c(O)c2ccc(N)cc2n(C)c1=O [compound 22, 7-amino-3-octyloxy-4-hydroxy-1-methyl-2(1H)-quinolinone] |  |  |  | 57 | 55
CCCCCCOc1c(O)c(=O)n(C)c2cc(N)ccc12 [compound 23, 7-amino-3-hydroxy-4-hexyloxy-1-methyl-2(1H)-quinolinone] |  |  |  | 44 | 41
CCCCCCCCNc1ccc2c(O)c(OC)c(=O)n(C)c2c1 [compound 24, 7-octylamino-3-methoxy-4-hydroxy-1-methyl-2(1H)-quinolinone] |  |  |  | 46 | 44
CCCCCCOc1c(O)c2ccc(N(C)C)cc2n(C)c1=O [compound 25, 7-dimethylamino-3-hexyloxy-4-hydroxy-1-methyl-2(1H)-quinolinone] |  |  |  | 47 | 48
CCCCCCCCOc1c(O)c(=O)n(C)c2cc(NC)ccc12 [compound 26, 7-methylamino-3-hydroxy-4-octyloxy-1-methyl-2(1H)-quinolinone] |  |  |  | 41 | 39

Structure (SMILES) | inhibition in vivo at 200 mg/kg ([1]; positive control Tranilast, 200 mg/kg p.o.) [%] | inhibition in vivo at 200 mg/kg ([2]; Mus musculus, po, negative control Tranilast, 200 mg/kg p.o., ear thickness at 24 hours, read-out: Inhibition (%) of increase of ear thickness) [%] | inhibition of delayed type hypersensitization (in words) ([2]; Tranilast, 200 mg/kg p.o.) | inhibition in vivo at 100 mg/kg [1] [%] | inhibition in vivo at 20 mg/kg [2, 3] [%]
CCCCCCNc1ccc2c(O)c(OC)c(=O)n(C)c2c1 [compound 27, 7-hexylamino-3-methoxy-4-hydroxy-1-methyl-2(1H)-quinolinone] |  |  |  | 45 | 46
CCCCCCOc1c(O)c(=O)n(C)c2cc(NCCCC)ccc12 [compound 28, 7-butylamino-3-hydroxy-4-hexyloxy-1-methyl-2(1H)-quinolinone] |  |  |  | 42 | 37
C=CCOc1c(O)c2ccc(NC)cc2n(C)c1=O [compound 29, 7-methylamino-3-(2-propenyloxy)-4-hydroxy-1-methyl-2(1H)-quinolinone] |  |  |  | 42 | 48
CNc1ccc2c(O)c(OCC=C(C)C)c(=O)n(C)c2c1 [compound 30, 7-methylamino-3-prenyloxy-4-hydroxy-1-methyl-2(1H)-quinolinone] |  |  |  | 44 | 52
CNc1ccc2c(O)c(OC/C=C(\C)CCC=C(C)C)c(=O)n(C)c2c1 [compound 31, 7-methylamino-3-geranyloxy-4-hydroxy-1-methyl-2(1H)-quinolinone] |  |  |  | 46 | 45
CCCCCCOc1c(O)c2ccc(N)cc2n(CC)c1=O [compound 32, 7-amino-3-hexyloxy-4-hydroxy-1-ethyl-2(1H)-quinolinone] |  |  |  | 44 | 48
CCCCOc1c(O)c(=O)n(CCC)c2cc(N)ccc12 [compound 33, 7-amino-3-hydroxy-4-butyloxy-1-propyl-2(1H)-quinolinone] |  |  |  | 40 | 40
CCCCCCCCCCOc1c(O)c(=O)n(CCC)c2cc(N)ccc12 [compound 34, 7-amino-3-hydroxy-4-decyloxy-1-propyl-2(1H)-quinolinone] |  |  |  | 40 | 37
CCCCCCOc1c(O)c2ccc(N(C)C)cc2n(CCCC)c1=O [compound 35, 7-dimethylamino-3-hexyloxy-4-hydroxy-1-butyl-2(1H)-quinolinone] |  |  |  | 45 | 46
CCCCn1c(=O)c(O)c(OC)c2ccc(N(C)C)cc21 [compound 36, 7-dimethylamino-3-hydroxy-4-methoxy-1-butyl-2(1H)-quinolinone] |  |  |  | 41 | 40
CCCCn1c(=O)c(OCC=C(C)C)c(O)c2ccc(NC)cc21 [compound 37, 7-methylamino-3-prenyloxy-4-hydroxy-1-butyl-2(1H)-quinolinone] |  |  |  | 42 | 45
CCCCn1c(=O)c(O)c(OCC=C(C)C)c2ccc(NC)cc21 [compound 38, 7-methylamino-3-hydroxy-4-prenyloxy-1-butyl-2(1H)-quinolinone] |  |  |  | 40 | 37
CCCCCCCCOc1c(O)c2ccc(NC(C)=O)cc2n(C)c1=O [compound 39, 7-acetylamino-3-octyloxy-4-hydroxy-1-methyl-2(1H)-quinolinone] |  |  |  | 50 | 48
CCCCCCOc1c(O)c2ccc(NC(=O)/C=C/c3cc(OC)c(O)c(OC)c3)cc2n(C)c1=O [compound 43, 7-(4-hydroxy-3,5-dimethoxycinnamoylamino)-3-hexyloxy-4-hydroxy-1-methyl-2(1H)-quinolinone] |  |  |  | 49 | 53
CCCCCCCCOc1c(O)c2ccc(NC(=O)/C=C/c3ccc(OC(C)=O)c(OC)c3)cc2n(C)c1=O [compound 44, 7-(4-acetoxy-3-methoxycinnamoylamino)-3-octyloxy-4-hydroxy-1-methyl-2(1H)-quinolinone] |  |  |  | 50 | 53
